Literature values as cited in patent US20220071932A1, “Compositions and Methods Against Stress-Induced Affective Disorders and Their Associated Symptoms” (The Trustees of Columbia University in the City of New York, priority 2019, published 2022).

System: depressive symptoms in patients
Conditions: patients diagnosed with MDD; cited from earlier work

For CC12CC3CC(C)(C1)CC(N)(C3)C2 [memantine], the “reduction of depressive symptoms” value is given as “does not reduce depressive symptoms”.
